PMC8708382, “Heterocyclic Cathinones as Inhibitors of Kynurenine Aminotransferase II—Design, Synthesis, and Evaluation” (Pharmaceuticals, 2021)
Counter-ions that a name gives are not always drawn. Like-named read-outs stand apart in the source and are kept apart here.

How the values were obtained:
hKAT-II = molecular target: T1, hKAT-II (Homo sapiens, UniProt Q8N5Z0); assay: Coupled fluorescence in vitro inhibition assay of hKAT-II; format: biochemical; details: 20 nM hKAT-II; for Inhibitory Activity [%I ± SEM] c = 1 µM: 30 min pre-incubation with enzyme, mean ± SEM; for IC50: 30 min pre-incubation
T1 construct: hexahistidine tag (N); made in house; host or cells: E. coli BL21(DE3)-RIL
T1 sequence (Q8N5Z0 30-425): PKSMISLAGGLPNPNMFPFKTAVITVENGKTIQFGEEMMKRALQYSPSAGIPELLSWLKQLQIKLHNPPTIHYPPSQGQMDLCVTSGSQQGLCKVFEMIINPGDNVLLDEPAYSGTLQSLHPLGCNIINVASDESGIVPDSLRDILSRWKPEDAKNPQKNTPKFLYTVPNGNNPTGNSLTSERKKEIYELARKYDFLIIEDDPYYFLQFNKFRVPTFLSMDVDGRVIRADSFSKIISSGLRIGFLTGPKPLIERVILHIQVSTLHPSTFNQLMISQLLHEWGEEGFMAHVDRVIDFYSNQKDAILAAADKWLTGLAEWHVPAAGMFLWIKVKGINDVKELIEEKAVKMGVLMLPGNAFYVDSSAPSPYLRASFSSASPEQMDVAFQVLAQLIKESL
Method: The inhibitory activity of amino ketones 11 and 12 was evaluated using a fluorimetric in vitro assay. The activity was determined as the percentage of inhibition (%I) at a concentration of 1 µmol/L and also as IC50 values (Table 1). The observed inhibitory activity confirmed the validity of the computational model and was suitable to conduct a synthesis-directed SAR study around the predicted heterocyclic α-amino ketone structure.
The nucleotide sequence encoding hKAT-II gene was constructed by Invitrogen, Thermo Fisher Scientific. The hKAT-II gene, optimized for heterologous expression in E. coli, was cloned into a pET15b vector using NdeI-XhoI. The hKAT-II protein, carrying an N-terminal hexahistidine tag, was produced in E.coli BL21(DE3)-RIL cells for 4 h at 37 °C. The bacterial cells were then harvested and disintegrated using One-Shot. […] (25.000× g, 30 min) centrifugation cleared cell lysate containing hKAT-II was loaded on the top of a HisTrap Fast Flow column (Cytiva) equilibrated in loading buffer (40 mM Tris, pH 8; 1000 mM NaCl, 40 µM PLP, 5 mM MgCl2, 20 mM imidazole). Following elution of the bound proteins by the loading buffer containing 600 mM imidazole, purified hKAT-II was dialyzed into a storage buffer (20 mM Hepes pH 7.5; 50 mM NaCl, 70 µM PLP, 10% glycerol), concentrated to 1.0–1.5 mg/mL, aliquoted, and stored at −80 °C.
hKAT-II activity was measured using a fluorescence assay utilizing L-α-aminoadipic acid (AAD) and α-ketoglutarate as the substrates as previously described. The assay medium (100 µL) consisted of 0.75 µM of hKAT-II, 0.3 mM of AAD, 50 µM α-ketoglutarate, 3 mM NAD^+, 88 µg/mL of glutamic dehydrogenase, and 5 µM pyridoxal phosphate (PLP) in a 0.1 M phosphate buffer pH 7.5. The activity of the enzyme was assessed on a Spark multiple mode reader (Tecan Group Ltd., Männedorf, Switzerland) with an excitation wavelength of 340 nm and emission wavelength of 390 nm at 37 °C. The plate was shaken for 20 s before reading. The kinetic interval was set at 30 s between each reading, and data were collected for 30 min. The activity of the enzyme was assayed in pentaplicate in each measurement (n = 3). Kinetic data were then collected over a period of 30 min, and the linear part of the initial velocity was used to calculate the enzyme activity expressed as the slope of the linearized curve via the linear regression function (Excel, Microsoft, USA).
The inhibitory activity of the tested compounds was determined via 30 min pre-incubation with the enzyme at various concentrations of the inhibitor at room temperature in a 0.1 M phosphate buffer pH 7.5 with 5 µM PLP. The enzyme reaction was initiated by the addition of a substrate and cofactors. The final mixture contained 20 nM of hKAT-II, 0.3 mM of AAD, 50 µM α-ketoglutarate, 3 mM NAD^+, and 88 µg/mL of glutamic dehydrogenase. Kinetic data were collected over a period of 30 min, and the slope of the linearized curve was calculated as above. The inhibitory activity in %I at a given concentration was calculated for novel compounds using the following equation:(1) Inhibition [%I]=(V0− Vi/V0)×100, where V0 and Vi are the activity of the enzyme in the absence and presence of the inhibitor, respectively. All the data were obtained in pentaplicate for each measurement (n = 3). Alternatively, the IC50 values for selected novel compounds were assessed. GraphPad Prism 8 software (San Diego, USA) was used for the IC50 value calculation using non-linear regression (four parameters). […]

C[C@H](N)C(=O)c1cn(-c2cccnc2)nn1 (as salt: hydrochloride) [Compound 26l]
melting point: 140 to 143 °C (dec.)

C[C@H](N)C(=O)c1cn(Cc2ccccc2)nn1.Cl [Compound 28a]
Inhibitory Activity [%I ± SEM] c = 1 µM (hKAT-II): 14.54 ± 3.19 %I
melting point: > 182 °C (dec.)

CC[C@H](N)C(=O)c1cn(-c2ccc(F)cc2Cl)nn1 [Compound 32b]
Inhibitory Activity [%I ± SEM] c = 1 µM (hKAT-II): 21.25 ± 0.67 %I
melting point: > 196 °C (dec.)

C[C@H](N)C(=O)c1ncc(-c2ccc(F)cc2Cl)s1.Cl [Compound 49c]
Inhibitory Activity [%I ± SEM] c = 1 µM (hKAT-II): 47.65 ± 1.71 %I
melting point: 127 to 134 °C (dec.)

C[C@H](N)C(=O)c1cn(CCc2ccccc2)nn1.Cl [Compound 28b]
Inhibitory Activity [%I ± SEM] c = 1 µM (hKAT-II): 11.84 ± 5.76 %I
melting point: > 172 °C (dec.)

C[C@H](N)C(=O)c1cn(-c2cccc(Cl)c2)nn1 [Compound 26s]
Inhibitory Activity [%I ± SEM] c = 1 µM (hKAT-II): 20.63 ± 3.78 %I
melting point: > 171 °C (dec.)

COc1ccccc1-n1cc(C(=O)[C@H](C)N)nn1 [Compound 26c]
Inhibitory Activity [%I ± SEM] c = 1 µM (hKAT-II): 23.41 ± 3.97 %I
melting point: > 168 °C (dec.)

CC(C)[C@H](N)C(=O)c1ncc(-c2ccccc2)s1 [Compound 25a]
Inhibitory Activity [%I ± SEM] c = 1 µM (hKAT-II): 31.24 ± 3.64 %I
melting point: > 170 °C (dec.)

N[C@H]1Cc2ccccc2N(O)C1=O [Compound 3, PF-04859989, reference compound]
IC50 (hKAT-II; assay validation, read-out: IC50 of the reference inhibitor): 28 ± 5 nM

COc1ccc(-n2cc(C(=O)[C@H](C)N)nn2)cc1 [Compound 26a]
Inhibitory Activity [%I ± SEM] c = 1 µM (hKAT-II): 38.50 ± 2.21 %I
melting point: > 180 °C (dec.)

CCCC[C@H](N)C(=O)c1cn(-c2ccccc2)nn1.Cl [Compound 21d]
Inhibitory Activity [%I ± SEM] c = 1 µM (hKAT-II): 13.46 ± 5.46 %I
melting point: > 173 °C (dec.)

CC[C@H](N)C(=O)c1cn(-c2ccccc2)nn1.Cl [Compound 21e]
Inhibitory Activity [%I ± SEM] c = 1 µM (hKAT-II): 21.82 ± 4.80 %I

C[C@H](N)C(=O)c1cn(-c2ccccn2)nn1.Cl [Compound 26k]
Inhibitory Activity [%I ± SEM] c = 1 µM (hKAT-II): 20.73 ± 1.83 %I
melting point: > 198 °C (dec.)

C[C@H](N)C(=O)c1cn(-c2ccc([N+](=O)[O-])cc2)nn1.Cl [Compound 26q]
Inhibitory Activity [%I ± SEM] c = 1 µM (hKAT-II): 41.73 ± 2.66 %I
melting point: > 191 °C (dec.)

Cc1ccc(-n2cc(C(=O)[C@H](C)N)nn2)cc1 [Compound 26e]
Inhibitory Activity [%I ± SEM] c = 1 µM (hKAT-II): 18.56 ± 2.33 %I
melting point: > 184 °C (dec.)

C[C@H](N)C(=O)c1cn(-c2ccc3ccccc3c2)nn1 [Compound 26j]
Inhibitory Activity [%I ± SEM] c = 1 µM (hKAT-II): 27.81 ± 3.33 %I
melting point: > 182 °C (dec.)

C[C@H](N)C(=O)c1nc2ccccc2s1.Cl [Compound 34a]
Inhibitory Activity [%I ± SEM] c = 1 µM (hKAT-II): 52.49 ± 1.31 %I
melting point: > 156 °C (dec.)

N[C@@H](Cc1ccccc1)C(=O)c1ncc(-c2ccccc2)s1 [Compound 25b]
Inhibitory Activity [%I ± SEM] c = 1 µM (hKAT-II): 7.22 ± 2.70 %I
melting point: > 175 °C (dec.)

C[C@H](N)C(=O)c1ncc(-c2ccc(F)cc2)s1 [Compound 49a, 2-alaninoyl-5-(4-fluorophenyl)thiazole]
IC50 (hKAT-II; non-linear regression (four parameters), read-out: IC50 ± SEM): 97 ± 14 nM
Inhibitory Activity [%I ± SEM] c = 1 µM (hKAT-II): 61.54 ± 7.16 %I

C[C@H](N)C(=O)c1cn(-c2ccc(F)c(Cl)c2)nn1 [Compound 26v]
Inhibitory Activity [%I ± SEM] c = 1 µM (hKAT-II): 23.62 ± 4.30 %I

C[C@H](N)C(=O)c1cn(-c2cccnc2)nn1 [Compound 26l]
Inhibitory Activity [%I ± SEM] c = 1 µM (hKAT-II): 23.63 ± 2.30 %I

C[C@H](N)C(=O)c1cn(-c2ccc(C(F)(F)F)cc2)nn1 [Compound 26o]
Inhibitory Activity [%I ± SEM] c = 1 µM (hKAT-II): 9.70 ± 1.67 %I
